`O=C(CCc1ccc(NC2=NCCN2)cc1)c1ccc(N2CCOCC2)cc1` [Example 3, 3-[4-(4,5-Dihydro-1H-imidazol-2-ylamino)phenyl]-1-(4-morpholin-4-ylphenyl)-propan-1-one]: the melting point (in general, the temperature, or range, at which the solid turns liquid) is 196 to 197.6 °C. The figure for `CCOC(=O)N1CCN(c2ccc(C(=O)CCc3ccc(NC4=NCCN4)cc3)cc2)CC1` [Example 5, 3-[4-(4,5-Dihydro-1H-imidazol-2-ylamino)phenyl]-1-[4-(4-ethoxycarbonyl-piperazin-1-yl)phenyl]propan-1-one] is 150 to 151.2 °C.
